According to patent US20250051283A1, “THERAPEUTIC COMPOUNDS AND METHODS” (priority 2023, published 2025):

tested on: EV-D68 US/MO/14-18947; assay: CPE assay (neutral red) with EV-D68 US/MO/14-18947 in R.D. cells; format: cell-based, Enterovirus D68; details: CPE assay, EV-D68 US/MO/14-18947 in R.D. cells; read-out: Antiviral EC50
Description: Cell lines and viruses. Human rhabdomyosarcoma (R.D., ATCC, CCL-136) cells were maintained at 37° C. in a 5% CO2 atmosphere and cultured in Dulbecco's modified Eagle's medium (DMEM) supplemented with 10% fetal bovine serum (FBS) and 1% penicillin-streptomycin antibiotics. The following reagents were obtained through BEI Resources, NIAID, NIH: Human Enterovirus D68, US/MO/14-18949, NR-49130; Enterovirus D68, US/MO/14-18947, NR-49129; Enterovirus D68, US/IL/14-18952, NR-49131; Enterovirus D68, US/KY/14-18953, NR-49132; Enterovirus D68, US/IL/14-18956, NR-49133.
Antiviral assays. Cells for antiviral assays were seeded and grown overnight at 37° C. in a 5% CO2 atmosphere for ˜90% confluency the next day. For all infections, cells were washed with PBS containing magnesium and calcium and infected with virus diluted in DMEM with 2% FBS and 30 mM MgCl2. Viruses were incubated for at least 1 h at 33° C. in a 5% CO2 atmosphere, followed by the addition of compound as well as 1% penicillin-streptomycin. For CC50 measurements, the experiment was performed similarly but excluded viral infection. For cytopathic effect (CPE) assays, cells were stained with 66 µg/mL neutral red for 2 h and neutral red uptake was measured at absorbance 540 nm using a Multiskan FC Microplate Photometer (ThermoFisher Scientific). The EC50 and CC50 values were calculated from best-fit dose response curves using GraphPad Prism. For plaque reduction assays, an 1.2% avicel microcrystalline cellulose (FMC BioPolymer, Philadelphia, PA) overlay was used and cells were stained after 3 days as previously described^26.

SMILES | EC50
CCC[C@H](NC(=O)[C@@H]1[C@H]2CCC[C@H]2CN1C(=O)[C@@H](NC(=O)C[C@@]12C[C@@H]3C[C@@H](C[C@@](O)(C3)C1)C2)C(C)(C)C)C(=O)C(=O)NC1CC1 [Jun922, (1S,3aR,6aS)—N—((S)-1-(cyclopropylamino)-1,2-dioxohexan-3-yl)-2-((S)-2-(2-((1r,3R,5R,7S)-3-hydroxyadamantan-1-yl)acetamido)-3,3-dimethylbutanoyl)octa-hydrocyclopenta[c]pyrrole-1-carboxamide] | 1850 nM
CCC[C@H](NC(=O)[C@@H]1[C@H]2CCC[C@H]2CN1C(=O)[C@@H](NC(=O)CC1C2CC3CC(C2)CC1C3)C(C)(C)C)C(=O)C(=O)NC1CC1 (stereo partly drawn) [Jun1024, (1S)-2-((S)-2-(2-((1S,3S,5S,7S)-adamantan-2-yl)acetamido)-3,3-dimethylbutanoyl)-N—((S)-1-(cyclopropylamino)-1,2-dioxohexan-3-yl)octahydrocyclopenta[c]pyrrole-1-carboxamide] | 180 nM

same assay, conditions: Enterovirus D, EVD68, RD, read-out: Antiviral EC50, CPE assay, EV-D68 US/MO/14-18947 in R.D. cells

SMILES | EC50
CCC[C@H](NC(=O)[C@@H]1[C@H]2CCC[C@H]2CN1C(=O)[C@@H](NC(=O)[C@@H](NC(=O)OCc1ccccc1)C1CCCCC1)C(C)(C)C)C(=O)C(=O)NC1CC1 [Jun7453, Benzyl ((S)-1-cyclohexyl-2-(((S)-1-((1S,3aR,6aS)-1-(((S)-1-(cyclopropylamino)-1,2-dioxohexan-3-yl)carbamoyl)hexahydrocyclopenta[c]pyrrol-2(1H)-yl)-3,3-dimethyl-1-oxobutan-2-yl)amino)-2-oxoethyl)carbamate] | 630 nM

same assay, conditions: Enterovirus D, EVD68, RD; CPE assay, EV-D68 US/MO/14-18947 in R.D. cells; read-out: Antiviral EC50

SMILES | EC50
CCC[C@@H](C#N)NC(=O)[C@@H]1[C@H]2CCC[C@H]2CN1C(=O)C(NC(=O)CC12CC3CC(CC(C3)C1)C2)C(C)(C)C (stereo partly drawn) [Jun11191, (1S,3aR,6aS)-2-((S)-2-(2-((3S,5S,7S)-adamantan-1-yl)acetamido)-3,3-dimethylbutanoyl)-N—((S)-1-cyanobutyl) octahydro-cyclopenta[c]pyrrole-1-carboxamide] | 3920 nM

target: T1, EV-D68 2A^pro (WT-2A^pro, strain US/KY/14-18953, expressed in E. coli BL21(DE3) from pE-SUMOstar vector) (enterovirus D68, UniProt A0A097BW19); assay: FRET-based enzymatic assay of EV-D68 2A^pro inhibition (FRET substrate Dabcyl-KIRIVNT/GPGFGGE-Edans); format: biochemical; details: not given
T1 construct: E. coli-codon-optimised gene, pE-SUMOstar, His-SUMO tag (removed with SUMO protease for nontagged form), E. coli BL21(DE3), Ni-NTA; 7JRE is the C107A mutant
Description: (§1) FIG. 4. […] Key structural variations compared to telaprevir were highlighted in red. Enzymatic inhibitory activity IC50 value was determined in the FRET-based assay. Antiviral EC50 value was determined in the CPE assay with EV-D68 US/MO/14-18947 in R.D. cells. Cytotoxicity CC50 value was determined using the neutral red uptake method in R.D. cells. The results are the mean±standard deviation of two independent experiments with three repeats in each experiment.
as §1, with “5.” for “4.”, “Jun8861” for “telaprevir”
Protein expression and purification. EV-D68 2A^pro gene from strain US/KY/14-18953 was ordered from Genscript (Piscataway, NJ) in pET28b(+) vector with E. coli codon optimization. 2A^pro gene was subcloned into pE-SUMOstar vector according to the manufacturers protocol. Plasmid encoding WT-2A^pro was transformed into BL21(DE3) competent E. coli cells, and a single colony was picked and used to inoculate 10 mL of L.B. grown supplemented with 50 μg/mL kanamycin at 37° C. at 250 rpm. The 10 mL inoculant was added to 1 L of L.B. with 50 μg/mL kanamycin and grown to an OD600 of 0.8-1.0, cooled to 18° C., then induced using 0.5 mM IPTG. Induced cultures were incubated at 18° C. for an additional 24 h, then harvested and resuspended in lysis buffer (25 mM Tris (pH 7.5); 750 mM NaCl, 2 mM DTT with 0.5 mg/mL lysozyme, 0.5 mM PMSF and 0.02 mg/mL DNase I) and lysed with alternating sonication and French press cycles. The cell debris were removed by centrifugation at 12,000×g for 45 min […]. The supernatant was incubated with Ni-NTA resin for over 2 h at 4° C. on a rotator. The Ni-NTA resin was thoroughly washed with 50 mM imidazole in wash buffer (50 mM Tris (pH 7.5), 150 mM NaCl, and 2 mM DTT); for the SUMO-tagged protein, the protein was directly eluted with 300 mM imidazole; for the nontagged 2A^pro Ni-NTA resin was treated with SUMO Protease 1 to remove the SUMO tag, then 2A^pro was washed off from the column with 10 mM imidazole in wash buffer. The imidazole was removed via dialysis or 10 K molecular weight cut-off centrifugal concentrator spin column. The purity of the protein was confirmed with SDS-PAGE. The protein concentration was determined by classic BCA assay using bovine serum albumin as a standard. EV-D68 3C^pro in pET28b(+) vector was expressed as previously described^10.
Peptide synthesis. The FRET substrate of EV-D68 2A^pro, Dabcyl-KIRIVNT/GPGFGGE-Edans, was synthesized using the Fmoc solid phase synthesis strategy.
Enzymatic assays. The reaction buffer contains 50 mM Tris (pH7.0), 150 mM NaCl, 10% Glycerol, and 2 mM DTT, and the reaction was carried out at 30° C. in Cytation 5 imaging reader (Fisher Scientific) with EX360/40-EM460/40 filter. Reactions were monitored every 90 sec. […] The reaction was initiated by adding 20 μM of FRET substrate, and the reaction was monitored for 2 hours and initial velocity was calculated for the first 30 minutes via linear regression.

SMILES | IC50
CCCC(NC(=O)C1C2CCCC2CN1C(=O)C(NC(=O)CC12CC3CC(CC(O)(C3)C1)C2)C(C)(C)C)C(=O)C(=O)NC1CC1 [Jun922, (1S,3aR,6aS)—N—((S)-1-(cyclopropylamino)-1,2-dioxohexan-3-yl)-2-((S)-2-(2-((1r,3R,5R,7S)-3-hydroxyadamantan-1-yl)acetamido)-3,3-dimethylbutanoyl)octa-hydrocyclopenta[c]pyrrole-1-carboxamide] | 400 ± 50 nM
CCCC(NC(=O)C1C2CCCC2CN1C(=O)C(NC(=O)CC1C2CC3CC(C2)CC1C3)C(C)(C)C)C(=O)C(=O)NC1CC1 [Jun1024, (1S)-2-((S)-2-(2-((1S,3S,5S,7S)-adamantan-2-yl)acetamido)-3,3-dimethylbutanoyl)-N—((S)-1-(cyclopropylamino)-1,2-dioxohexan-3-yl)octahydrocyclopenta[c]pyrrole-1-carboxamide] | 120 ± 10 nM
CCC[C@H](NC(=O)[C@@H]1[C@H]2CCC[C@H]2CN1C(=O)[C@@H](NC(=O)[C@@H](NC(=O)OCc1ccccc1)C1CCCCC1)C(C)(C)C)C(=O)C(=O)NC1CC1 [Jun7453, Benzyl ((S)-1-cyclohexyl-2-(((S)-1-((1S,3aR,6aS)-1-(((S)-1-(cyclopropylamino)-1,2-dioxohexan-3-yl)carbamoyl)hexahydrocyclopenta[c]pyrrol-2(1H)-yl)-3,3-dimethyl-1-oxobutan-2-yl)amino)-2-oxoethyl)carbamate] | 360 ± 20 nM
COC[C@H](NC(=O)[C@@H]1[C@H]2CCC[C@H]2CN1C(=O)[C@@H](NC(=O)CC12CC3CC(CC(C3)C1)C2)C(C)(C)C)C(=O)C(=O)NC1CC1 [Jun11672, (1S,3aR,6aS)-2-((S)-2-(2-((3S,5S,7S)-adamantan-1-yl)acetamido)-3,3-dimethylbutanoyl)-N—((S)-4-(cyclopropylamino)-1-methoxy-3,4-dioxobutan-2-yl)octahydrocyclopenta[c]pyrrole-1-carboxamide] | 120 ± 70 nM
CC(C)(C)C(NC(=O)CC12CC3CC(CC(C3)C1)C2)C(=O)N1CC2CCCC2C1C(=O)NC(C(=O)C(N)=O)C1CCCCC1 [Jun11725, (1S,3aR,6aS)-2-((S)-2-(2-((3S,5S,7S)-adamantan-1-yl)acetamido)-3,3-dimethylbutanoyl)-N—((S)-3-amino-1-cyclohexyl-2,3-dioxopropyl)octahydro-cyclopenta[c]pyrrole-1-carboxamide] | 190 ± 20 nM
CC(C)(C)[C@H](NC(=O)CC12CC3CC(CC(C3)C1)C2)C(=O)N1C[C@@H]2CCC[C@@H]2[C@H]1C(=O)NC1(C(=O)C(=O)NC2CC2)CCCCC1 [Jun11805, (1S,3aR,6aS)-2-((S)-2-(2-((3S,5S,7S)-adamantan-1-yl)acetamido)-3,3-dimethylbutanoyl)-N-(1-(2-(cyclopropylamino)-2-oxoacetyl)cyclohexyl)octahydrocyclopenta[c]pyrrole-1-carboxamide] | 740 ± 140 nM
CC(C)(C)[C@H](NC(=O)CC12CC3CC(CC(C3)C1)C2)C(=O)N1C[C@@H]2CCC[C@@H]2[C@H]1C(=O)NC1(C(=O)C(=O)NC2CC2)CCC1 [Jun11806, (1S,3aR,6aS)-2-((S)-2-(2-((3S,5S,7S)-adamantan-1-yl)acetamido)-3,3-dimethylbutanoyl)-N-(1-(2-(cyclopropylamino)-2 oxoacetyl)cyclobutyl)octahydrocyclopenta[c]pyrrole-1-carboxamide] | 4810 ± 810 nM
CC(C)(C)[C@H](NC(=O)CC12CC3CC(CC(C3)C1)C2)C(=O)N1C[C@@H]2CCC[C@@H]2[C@H]1C(=O)N[C@H](C(=O)C(=O)NC1CC1)c1ccccc1 [Jun11817, (1S,3aR,6aS)-2-((S)-2-(2-((3S,5S,7S)-adamantan-1-yl)acetamido)-3,3-dimethylbutanoyl)-N—((S)-3-(cyclopropylamino)-2,3-dioxo-1-phenylpropyl)octahydrocyclopenta[c]pyrrole-1-carboxamide] | 230 ± 80 nM
CC(C)(C)[C@H](NC(=O)CC12CC3CC(CC(C3)C1)C2)C(=O)N1C[C@@H]2CCC[C@@H]2[C@H]1C(=O)N[C@@H](Cc1ccsc1)C(=O)C(=O)NC1CC1 [Jun11818] | 120 ± 20 nM
CC(C)(C)[C@H](NC(=O)CC12CC3CC(CC(C3)C1)C2)C(=O)N1C[C@@H]2CCC[C@@H]2[C@H]1C(=O)N[C@H](C(=O)C(=O)NC1CC1)c1ccc(F)cc1 [Jun11861, (1S,3aR,6aS)-2-((S)-2-(2-((3S,5S,7S)-adamantan-1-yl)acetamido)-3,3-dimethylbutanoyl)-N—((S)-3-(cyclopropylamino)-1-(4-fluorophenyl)-2,3-dioxopropyl)octahydrocyclopenta[c]pyrrole-1-carboxamide] | 350 ± 130 nM
